{"source": "patent US20030018074A1", "about": "“Antiviral composition and treatment method” (priority 2001, published 2003)", "origin": "cited, not measured here", "key": {"HSV-2": {"tested_on": "HSV-2", "conditions": "for EC50: HSV-2, Vero cells, surfactant suspension, read-out: effective concentration required to inhibit plaque formation by 50% (EC50)"}, "[1]": {"tested_on": "early viral protein synthesis"}, "[2]": {"tested_on": "HSV-1 dorsal cutaneous infection", "conditions": "5% in a branch chain ester base; guinea pigs"}, "HSV-2 virus": {"tested_on": "HSV-2 virus", "conditions": "incubation of HSV-2 with the suspension for 2 hours"}}, "note": "Read-outs that look alike come from different tables or passages of the source."}
{"smiles": "CCCCC/C=C\\C/C=C\\C/C=C\\CCCCCO", "note": "[γ-linolenyl alcohol]", "values": [{"measurement": "inactivation of viruses, rank among C14 to C20 unsaturated alcohols (in words)", "setting": "viruses", "result": "most effective"}]}
{"smiles": "CCCCCCCC/C=C/CCCCCCCCCCCCO", "note": "[brassidyl alcohol, trans-13-docosen-1-ol]", "values": [{"measurement": "cellular toxicity (in words)", "setting": "Vero cells; compared with erucyl alcohol", "result": "significantly less than that of erucyl alcohol"}]}
{"smiles": "CCCCCCCC/C=C\\CCCCCCCCCCCC(N)=O", "note": "[erucamide, cis-13-docosenoamide]", "values": [{"measurement": "percent inhibition of plaque formation", "setting": "HSV-2; 0.03 mM", "result": 34, "unit": "%"}, {"measurement": "percent inhibition of plaque formation", "setting": "HSV-2; 0.59 mM", "result": 42, "unit": "%"}, {"measurement": "percent inhibition of plaque formation", "setting": "HSV-2; 0.89 mM", "result": 44, "unit": "%"}, {"measurement": "percent inhibition of plaque formation", "setting": "HSV-2; 1.2 mM", "result": 58, "unit": "%"}, {"measurement": "percent inhibition of plaque formation", "setting": "HSV-2; 1.5 mM", "result": 68, "unit": "%"}]}
{"smiles": "CCCCCCCCCCCCCCCCCCCCCCO", "note": "[n-docosanol]", "values": [{"measurement": "inhibition of early viral protein synthesis", "setting": "[1]", "result": "more than 80%"}, {"measurement": "EC50", "setting": "HSV-2", "result": 9, "unit": "mM"}, {"measurement": "concentrations where effective", "setting": "HSV-2; Vero cultures", "result": "2 to 15", "unit": "mM"}]}
{"smiles": "CCCCCCCCCCCCCCCCCCCCCCCCCCCCCCO", "note": "[triacontanol, 1-triacontanol]", "values": [{"measurement": "efficacy for the treatment of HSV-1 dorsal cutaneous infection (in words)", "setting": "[2]", "result": "a certain amount of efficacy"}]}
{"smiles": "CCCCCCCC/C=C\\CCCCCCCCCCCCO", "note": "[erucyl alcohol, cis-13-docosen-1-ol]", "values": [{"measurement": "direct virucidal effect (in words)", "setting": "HSV-2 virus", "result": "did not have a direct virucidal effect"}, {"measurement": "cellular toxicity (in words)", "setting": "Vero cells; 1 mM", "result": "no cellular toxicity was observed"}, {"measurement": "toxicity to Vero cells (in words)", "setting": "Vero cells; added to cultures at 2-15 mM", "result": "toxic to Vero cells"}, {"measurement": "EC50", "setting": "HSV-2", "result": 0.15, "unit": "mM"}, {"measurement": "inhibition of HSV-2 plaque production", "setting": "HSV-2; concentrations tolerable to the cells (≦1 mM)", "result": "≤ 93", "unit": "%"}, {"measurement": "EC50 lower than the concentration required for n-docosanol", "setting": "HSV-2; ratio of EC50 n-docosanol to EC50 erucyl alcohol", "result": 60, "unit": "fold"}]}
